Data taken from ChEMBL document CHEMBL1139572 (Bioorg Med Chem Lett, 2005).
pKi: −log10 of the molar value.

How the values were obtained:
Progesterone receptor [1] = target: T1, Progesterone receptor (Homo sapiens, UniProt P06401); test: Inhibition of 4 nM progesterone-stimulated transactivation of MMTV-Luc reporter in CV-1 cells expressing PR-B; assay type: functional, cell-based
T1 sequence (P06401 whole entry): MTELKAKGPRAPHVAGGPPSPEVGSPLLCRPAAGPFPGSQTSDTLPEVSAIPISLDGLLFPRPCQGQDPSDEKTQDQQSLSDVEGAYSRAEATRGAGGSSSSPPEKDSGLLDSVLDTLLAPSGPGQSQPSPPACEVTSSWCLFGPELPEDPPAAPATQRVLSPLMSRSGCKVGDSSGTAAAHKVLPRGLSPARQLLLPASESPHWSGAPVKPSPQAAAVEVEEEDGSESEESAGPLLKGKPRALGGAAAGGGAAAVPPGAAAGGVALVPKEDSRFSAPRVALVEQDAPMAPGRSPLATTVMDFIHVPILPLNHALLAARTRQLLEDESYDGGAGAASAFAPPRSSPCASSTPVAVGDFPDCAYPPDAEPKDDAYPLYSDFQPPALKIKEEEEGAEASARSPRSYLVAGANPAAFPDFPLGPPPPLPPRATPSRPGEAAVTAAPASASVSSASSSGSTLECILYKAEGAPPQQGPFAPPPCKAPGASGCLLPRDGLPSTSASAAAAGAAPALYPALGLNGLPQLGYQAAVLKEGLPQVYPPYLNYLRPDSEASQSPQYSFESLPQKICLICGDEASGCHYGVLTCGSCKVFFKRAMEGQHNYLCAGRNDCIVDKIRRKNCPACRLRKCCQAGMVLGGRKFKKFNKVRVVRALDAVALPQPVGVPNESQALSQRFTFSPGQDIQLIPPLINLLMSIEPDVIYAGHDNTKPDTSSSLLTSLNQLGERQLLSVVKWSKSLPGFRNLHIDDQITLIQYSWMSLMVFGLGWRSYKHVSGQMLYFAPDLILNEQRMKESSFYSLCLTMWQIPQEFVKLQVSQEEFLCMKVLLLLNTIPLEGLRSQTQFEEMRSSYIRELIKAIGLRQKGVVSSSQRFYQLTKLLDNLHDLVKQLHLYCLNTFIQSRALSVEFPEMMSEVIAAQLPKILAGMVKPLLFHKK

Progesterone receptor [2] = target: T1, Progesterone receptor; test: Displacement of fluorescent ligand from binding domain of progesterone receptor

Structure (SMILES)	Log IC50 (Progesterone receptor [1])	pKi (Progesterone receptor [2])
CN(C)c1ccc([C@@H]2CN(S(=O)(=O)c3ccc(Cl)cc3)N=C2c2ccc(Cl)c(Cl)c2)cc1	-5.8	7.00
O=S(=O)(c1ccc(Cl)cc1)N1N=C(c2ccc(Cl)c(Cl)c2)CC1c1ccccc1 (stereo unspecified)	-6.4	5.10
C[C@@H]1CN(S(=O)(=O)c2ccc(Cl)cc2)N=C1c1ccc(Cl)c(Cl)c1	-5.3	5.70
O=S(=O)(c1ccc(Cl)cc1)N1CC(c2ccccc2)C(c2ccc(Cl)c(Cl)c2)=N1 (stereo unspecified)	–	7.00
CN(C)c1ccc([C@H]2CN(S(=O)(=O)c3ccc(Cl)cc3)N=C2c2ccc(Cl)c(Cl)c2)cc1	> -5.5	< 5.00

Compounds with a higher pKi (Progesterone receptor [2]), results first:

Log IC50 (Progesterone receptor [1])	pKi (Progesterone receptor [2])	Structure (SMILES)
-6.7	7.40	CC1CC(c2ccc(Cl)c(Cl)c2)=NN1S(=O)(=O)c1ccc(Cl)cc1 (stereo unspecified)
-6.1	7.40	CN(C)c1ccc(C2CN(S(=O)(=O)c3ccc(Cl)cc3)N=C2c2ccc(Cl)c(Cl)c2)cc1 (stereo unspecified)
–	7.40	CC1CN(S(=O)(=O)c2ccc(Cl)cc2)N=C1c1ccc(Cl)c(Cl)c1 (stereo unspecified)
-7.6	7.70	C[C@H]1CN(S(=O)(=O)c2ccc(Cl)cc2)N=C1c1ccc(Cl)c(Cl)c1
